Assay: CNP local tolerance study in LYD pigs (s.c. injection, histopathology)
Type: in vivo, domestic LYD pig
Settings: LYD pig, s.c., approx. 4400 μM, 4 or 5 days after injection
Text: The purpose of this study was to evaluate the local tissue reaction response to subcutaneous injection of CNP compounds in pigs.
Procedure: In domestic pigs, the injection site was subjected to histopathologic examination after subcutaneous dosing. Injections were placed mid-back between the shoulder and hip on both sides of the dorsal midline, and one or two days before injection sites of 2×2 cm were shaved and marked by permanent ink under light anaesthesia. Each injection consisted of 100 or 200 μl formulation with a concentration of approx. 4400 μM. CNP compound formulations were prepared according to the principles in General Methods of Preparation—Method G, and were either A) 8 mM sodium phosphate, 250 mM glycerol, pH 6.5, B) 5 mM sodium acetate, 250 mM glycerol, pH 4.0 or C) 5 mM sodium acetate, 240 mM propylene glycol, pH 4.0 and physiological saline was included as negative control.
On Day 1 the pigs were lightly anaesthetised. An insulin pen (NovoPen 4) and insulin needle (NovoTwist 32G/5 mm) were used for accurate deposition of the CNP formulations in the subcutaneous fat tissue with the needle perpendicular to the skin. On Day 5 (4 days post injection) or 6 (5 days post injection), the pigs were euthanised, and the injection sites were removed and fixed in 4% phosphate buffered neutral formaldehyde in sealed plastic containers. The tissue blocks were prefixed for 2-4 hours in 10% buffered formalin, cut into 2 mm thick slabs with a multi knife, examined for macroscopic changes and finally fixed overnight in cassettes. Two slabs of tissue were selected for light microscopic evaluation where the tissue reaction was maximal or alternatively in the central part of the injection site. Three to four 2-4 μm sections were cut from three levels at 100 μm distance, stained with haematoxylin and eosin (H&E) and evaluated in a light microscope. Histopathological changes were graded on a 5-level scale ((Minimal (Min), Mild (Mil), Moderate (Mod), Marked (Mar) and Severe (Sev)). The studies are summarised in Table 18.
Results: The results are summarised in Table 19. * Necrosis was used as a marker for local subcutaneous reactions; **NAD: No Abnormalities Detected

SMILES: CC[C@H](C)[C@@H]1NC(=O)[C@H](CCCNC(=N)N)NC(=O)[C@H](CC(=O)O)NC(=O)[C@H](CC(C)C)NC(=O)[C@H](CCCCN)NC(=O)[C@H](CC(C)C)NC(=O)CNC(=O)[C@H](Cc2ccccc2)NC(=O)[C@@H](NC(=O)CNC(=O)[C@H](CCCCN)NC(=O)[C@H](CO)NC(=O)[C@H](CC(C)C)NC(=O)CNC(=O)[C@H](CCCCN)NC(=O)[C@H](CCCCN)NC(=O)[C@H](CC(N)=O)NC(=O)[C@H](C)NC(=O)CNC(=O)[C@H](CCCCN)NC(=O)[C@H](Cc2ccc(O)cc2)NC(=O)[C@H](CCCCN)NC(=O)[C@H](CCCNC(=N)N)NC(=O)[C@H](C)NC(=O)[C@H](CC(N)=O)NC(=O)[C@@H]2CCCN2C(=O)[C@H](Cc2c[nH]cn2)NC(=O)[C@H](CCC(=O)O)NC(=O)[C@H](CCC(N)=O)NC(=O)CNC(=O)[C@@H]2CCCN2)CSSC[C@@H](C(=O)O)NC(=O)CNC(=O)[C@H](CC(C)C)NC(=O)CNC(=O)[C@H](CO)NC(=O)[C@H](CCSC)NC(=O)[C@H](CO)NC(=O)CNC1=O [Compound 0106]
- Number of injections by severity of necrosis: NAD: 4

From US20240209028A1, “CNP COMPOUNDS” (priority 2022, published 2024)
